The results in this text go back to the supplement of paper PMC10307832.

Holding throughout (assay): relative viability (nuclei count vs DMSO), 5 days (fraction); higher = more cells survive
Compound in assay [1]: C1CN(CCC1C(C2=CC3=C(C=C2)OCO3)(C4=CC5=C(C=C4)OCO5)O)C(=O)OC6=CC=C(C=C6)[N+](=O)[O-] [JZL-184] + CC1(C)CCC(c2ccc(Cl)cc2)=C(CN2CCN(c3ccc(C(=O)NS(=O)(=O)c4ccc(N[C@H](CCN5CCOCC5)CSc5ccccc5)c(S(=O)(=O)C(F)(F)F)c4)cc3)CC2)C1 [Navitoclax] (partner 0.5 µM)
Put shortly:
(§1)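 Dosing by pin tool came one day after lung cancer cell lines were seeded in 1536-well plates, using either one drug or a fixed anchor-drug dose plus five library-drug doses (not always all listed) in √10 steps. After 5 days, nuclei were counted on 4× images. Relative viability is treated-well nuclei count divided by vehicle-well nuclei count, and values are medians of duplicate plates.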

Compound in assay [2]: C1CN(CCC1C(C2=CC3=C(C=C2)OCO3)(C4=CC5=C(C=C4)OCO5)O)C(=O)OC6=CC=C(C=C6)[N+](=O)[O-] [JZL-184] + COc1cc2c(Oc3ccc(NC(=O)C4(C(=O)Nc5ccc(F)cc5)CC4)cc3F)ccnc2cc1OCCCN1CCOCC1 [Foretinib] (partner 0.25 µM)
Put shortly: as §1

Compound in assay [3]: C1CN(CCC1C(C2=CC3=C(C=C2)OCO3)(C4=CC5=C(C=C4)OCO5)O)C(=O)OC6=CC=C(C=C6)[N+](=O)[O-] [JZL-184] + COc1cccc2cc(-c3nc([C@H]4CC[C@H](C(=O)O)CC4)n4ncnc(N)c34)[nH]c12 [OSI-027] (partner 0.5 µM)
Put shortly: as §1

Compound in assay [4]: C1CN(CCC1C(C2=CC3=C(C=C2)OCO3)(C4=CC5=C(C=C4)OCO5)O)C(=O)OC6=CC=C(C=C6)[N+](=O)[O-] [JZL-184] + Cc1cc(Nc2cc(N3CCN(C)CC3)nc(Sc3ccc(NC(=O)C4CC4)cc3)n2)n[nH]1 [Tozasertib] (partner 0.1 µM)
The procedure, abridged:
as §1

Compound in assay [5]: C1CN(CCC1C(C2=CC3=C(C=C2)OCO3)(C4=CC5=C(C=C4)OCO5)O)C(=O)OC6=CC=C(C=C6)[N+](=O)[O-] [JZL-184] + Nc1nc2[nH]cc(CCc3ccc(C(=O)N[C@@H](CCC(=O)O)C(=O)O)cc3)c2c(=O)[nH]1 [Pemetrexed] (partner 0.2 µM)
Put shortly: as §1

As for RERF-LC-KJ, the relative viability in assay [1] (first compound 0.04 µM) was 1.01; in assay [1] (first compound 0.4 µM), 1.1; in assay [1] (first compound 1.265 µM), 0.951; in assay [1] (first compound 4 µM), 0.825; in assay [2] (first compound 0.04 µM), 0.933; in assay [2] (first compound 0.4 µM), 0.9. Further, the relative viability in assay [2] (first compound 1.265 µM) was 0.876; in assay [2] (first compound 4 µM) it was 0.781; in assay [3] (first compound 0.04 µM), 0.58; in assay [3] (first compound 0.4 µM), 0.625; in assay [3] (first compound 1.265 µM), 0.562; in assay [3] (first compound 4 µM), 0.478. Besides, the relative viability in assay [4] (first compound 0.04 µM) came out at 0.499; in assay [4] (first compound 0.4 µM), 0.37; in assay [4] (first compound 1.265 µM) it was 0.453; in assay [4] (first compound 4 µM), 0.436; in assay [5] (first compound 0.04 µM), 0.496; in assay [5] (first compound 0.4 µM), 0.463. Besides, the relative viability amounted to 0.468 in assay [5] (first compound 1.265 µM) and 0.44 in assay [5] (first compound 4 µM).

On to SK-LU-1, for which the relative viability was determined as 1.36 in assay [1] (first compound 0.04 µM); 0.866 in assay [1] (first compound 0.4 µM); 0.915 in assay [1] (first compound 1.265 µM); 0.823 in assay [1] (first compound 4 µM); 0.909 in assay [2] (first compound 0.04 µM); 0.77 in assay [2] (first compound 0.4 µM). Further, the relative viability was found to be 0.919 in assay [2] (first compound 1.265 µM); 0.722 in assay [2] (first compound 4 µM); 0.405 in assay [3] (first compound 0.04 µM); 0.341 in assay [3] (first compound 0.4 µM); 0.423 in assay [3] (first compound 1.265 µM); 0.358 in assay [3] (first compound 4 µM). For the same cell line, the relative viability in assay [4] (first compound 0.04 µM) amounted to 0.372; in assay [4] (first compound 0.4 µM), 0.328; in assay [4] (first compound 1.265 µM), 0.329; in assay [4] (first compound 4 µM), 0.338; in assay [5] (first compound 0.04 µM) it was 1.04; in assay [5] (first compound 0.4 µM) it was 0.887. The relative viability in assay [5] (first compound 1.265 µM) came out at 1; in assay [5] (first compound 4 µM), 0.881.

With SK-MES-1, the relative viability in assay [1] (first compound 0.04 µM) came out at 1.35; in assay [1] (first compound 0.4 µM), 1.14; in assay [1] (first compound 1.265 µM), 1.12; in assay [1] (first compound 4 µM), 1.17; in assay [2] (first compound 0.04 µM), 1.01; in assay [2] (first compound 0.4 µM), 1.02. The relative viability was found to be 1.02 in assay [2] (first compound 1.265 µM); 0.86 in assay [2] (first compound 4 µM); 0.597 in assay [3] (first compound 0.04 µM); 0.625 in assay [3] (first compound 0.4 µM); 0.673 in assay [3] (first compound 1.265 µM); 0.535 in assay [3] (first compound 4 µM). Also, the relative viability in assay [4] (first compound 0.04 µM) worked out at 1.04; in assay [4] (first compound 0.4 µM) it was 0.878; in assay [4] (first compound 1.265 µM), 0.908; in assay [4] (first compound 4 µM), 0.706; in assay [5] (first compound 0.04 µM), 0.9; in assay [5] (first compound 0.4 µM), 0.872. The relative viability amounted to 1 in assay [5] (first compound 1.265 µM) and 0.907 in assay [5] (first compound 4 µM).

On to SW 1573, for which the relative viability amounted to 0.913 in assay [1] (first compound 0.04 µM); 0.912 in assay [1] (first compound 0.4 µM); 1.21 in assay [1] (first compound 1.265 µM); 1.16 in assay [1] (first compound 4 µM); 1.06 in assay [2] (first compound 0.04 µM); 0.791 in assay [2] (first compound 0.4 µM). The relative viability stood at 0.94 in assay [2] (first compound 1.265 µM); 0.829 in assay [2] (first compound 4 µM); 0.733 in assay [3] (first compound 0.04 µM); 0.548 in assay [3] (first compound 0.4 µM); 0.591 in assay [3] (first compound 1.265 µM); 0.525 in assay [3] (first compound 4 µM). For the same cell line, the relative viability in assay [4] (first compound 0.04 µM) was found to be 0.175; in assay [4] (first compound 0.4 µM) it was 0.143; in assay [4] (first compound 1.265 µM) it was 0.229; in assay [4] (first compound 4 µM), 0.176; in assay [5] (first compound 0.04 µM), 1.11; in assay [5] (first compound 0.4 µM), 0.842. Also, the relative viability came to 0.915 in assay [5] (first compound 1.265 µM) and 0.876 in assay [5] (first compound 4 µM).

With UMC-11, the relative viability in assay [1] (first compound 0.04 µM) is 0.349; in assay [1] (first compound 0.4 µM), 0.318; in assay [1] (first compound 1.265 µM) it was 0.349; in assay [1] (first compound 4 µM), 0.302; in assay [2] (first compound 0.04 µM), 1.09; in assay [2] (first compound 0.4 µM), 0.883. Also, the relative viability was 1.11 in assay [2] (first compound 1.265 µM); 1.09 in assay [2] (first compound 4 µM); 0.612 in assay [3] (first compound 0.04 µM); 0.461 in assay [3] (first compound 0.4 µM); 0.499 in assay [3] (first compound 1.265 µM); 0.457 in assay [3] (first compound 4 µM). Moreover, the relative viability stood at 0.177 in assay [4] (first compound 0.04 µM); 0.21 in assay [4] (first compound 0.4 µM); 0.206 in assay [4] (first compound 1.265 µM); 0.196 in assay [4] (first compound 4 µM); 0.916 in assay [5] (first compound 0.04 µM); 0.755 in assay [5] (first compound 0.4 µM). Further, the relative viability in assay [5] (first compound 1.265 µM) is 0.876; in assay [5] (first compound 4 µM), 0.79.
